Assay results: US11472805B2, “Tricyclic compounds and their use as phosphodiesterase inhibitors” (Pfizer Inc., priority 2015, dated 2022)
Where two headings read alike, the source gives them in different places.

How the values were obtained:
Assay type in all cases: biochemical
Human PDE4C1 = Human PDE4C1 (Homo sapiens (Human), UniProt Q08493); assay: PDE4C1 Scintillation Proximity Assay (SPA), inhibition of enzyme activity; conditions: read-out: Human PDE4C FL
Summary of the method: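 Recombinant insect-cell-expressed human PDE4C1 […] in 50 mM Tris pH 7.5, 1.3 mM MgCl2, 0.01% Brij with 1 μM cAMP (3H-cAMP tracer), ~20% substrate conversion, inhibitor concentration range. Incubated 30 min at 25° C; stopped with yttrium silicate SPA beads, read by scintillation after 8 h settling.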

Human PDE4A3 = Human PDE4A3 (Homo sapiens (Human), UniProt P27815); assay: PDE4A3 Scintillation Proximity Assay (SPA), inhibition of enzyme activity; conditions: read-out: Human PDE4A FL
Summary of the method: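 Recombinant human PDE4A3 expressed in insect cells, purified via Ni-NTA, anti-FLAG and size exclusion. SPA run 30 min at 25 °C in 50 mM Tris pH 7.5, 1.3 mM MgCl2, 0.01% Brij with 1 μM cAMP (20 nM 3H-cAMP), […], ~20% substrate conversion; stopped with yttrium silicate beads.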

Human PDE4B1 = Human PDE4B1 (Homo sapiens (Human), UniProt Q07343, S133E/S654A/S659A/S661A); assay: PDE4B1 Scintillation Proximity Assay (SPA), inhibition of enzyme activity; conditions: read-out: Human PDE4B FL
Summary of the method: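 His-tagged enzyme from baculovirus-infected insect cells, Ni-NTA purified. SPA with 1 μM cAMP (20 nM 3H-cAMP tracer) in 50 mM Tris pH 7.5, 1.3 mM MgCl2, 0.01% Brij, […] PDE4B enzyme for ~20% substrate conversion; 30 min at 25 °C, stopped with yttrium silicate beads, read after 8 h settling.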

human PDE4D3 = human PDE4D3 (Homo sapiens (Human), UniProt Q08499); assay: PDE4D3 Scintillation Proximity Assay (SPA), inhibition of enzyme activity; conditions: read-out: Human PDE4D FL
Summary of the method: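 His-tagged human PDE4D3 (aa 50–672), expressed in insect cells, hydrolysed 1 μM cAMP (3H tracer plus cold) for 30 min at 25° C in 50 mM Tris pH 7.5, 1.3 mM MgCl2 and 0.01% Brij. Enzyme level was set for ~20% conversion. Product was read by yttrium silicate SPA beads after 8 h settling.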

[1] = Table 9, geometric mean of 2-9 determinations unless otherwise indicated
[2] = Table 10, geometric mean of 2-9 determinations unless otherwise indicated

Human PDE4B1, sequence (Q07343 122-736 S133E/S654A/S659A/S661A): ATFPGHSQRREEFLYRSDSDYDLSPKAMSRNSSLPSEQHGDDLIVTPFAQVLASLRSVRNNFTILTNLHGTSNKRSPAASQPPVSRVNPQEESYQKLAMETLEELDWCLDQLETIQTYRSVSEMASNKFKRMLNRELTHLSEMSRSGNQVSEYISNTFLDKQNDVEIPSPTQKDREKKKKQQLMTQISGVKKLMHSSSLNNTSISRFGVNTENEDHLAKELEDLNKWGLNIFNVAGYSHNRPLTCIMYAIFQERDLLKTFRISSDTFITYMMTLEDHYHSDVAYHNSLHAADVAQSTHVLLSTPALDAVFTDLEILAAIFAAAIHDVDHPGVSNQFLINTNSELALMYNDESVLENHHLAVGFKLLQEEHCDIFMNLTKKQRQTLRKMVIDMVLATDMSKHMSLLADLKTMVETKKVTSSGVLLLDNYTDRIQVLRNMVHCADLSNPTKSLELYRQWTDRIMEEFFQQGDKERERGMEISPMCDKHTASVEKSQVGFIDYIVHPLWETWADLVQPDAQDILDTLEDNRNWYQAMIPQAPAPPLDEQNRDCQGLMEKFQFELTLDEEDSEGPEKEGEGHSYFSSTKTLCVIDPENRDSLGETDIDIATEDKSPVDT
Human PDE4A3, sequence (P27815 other isoform, or with tags, fused parts or gaps): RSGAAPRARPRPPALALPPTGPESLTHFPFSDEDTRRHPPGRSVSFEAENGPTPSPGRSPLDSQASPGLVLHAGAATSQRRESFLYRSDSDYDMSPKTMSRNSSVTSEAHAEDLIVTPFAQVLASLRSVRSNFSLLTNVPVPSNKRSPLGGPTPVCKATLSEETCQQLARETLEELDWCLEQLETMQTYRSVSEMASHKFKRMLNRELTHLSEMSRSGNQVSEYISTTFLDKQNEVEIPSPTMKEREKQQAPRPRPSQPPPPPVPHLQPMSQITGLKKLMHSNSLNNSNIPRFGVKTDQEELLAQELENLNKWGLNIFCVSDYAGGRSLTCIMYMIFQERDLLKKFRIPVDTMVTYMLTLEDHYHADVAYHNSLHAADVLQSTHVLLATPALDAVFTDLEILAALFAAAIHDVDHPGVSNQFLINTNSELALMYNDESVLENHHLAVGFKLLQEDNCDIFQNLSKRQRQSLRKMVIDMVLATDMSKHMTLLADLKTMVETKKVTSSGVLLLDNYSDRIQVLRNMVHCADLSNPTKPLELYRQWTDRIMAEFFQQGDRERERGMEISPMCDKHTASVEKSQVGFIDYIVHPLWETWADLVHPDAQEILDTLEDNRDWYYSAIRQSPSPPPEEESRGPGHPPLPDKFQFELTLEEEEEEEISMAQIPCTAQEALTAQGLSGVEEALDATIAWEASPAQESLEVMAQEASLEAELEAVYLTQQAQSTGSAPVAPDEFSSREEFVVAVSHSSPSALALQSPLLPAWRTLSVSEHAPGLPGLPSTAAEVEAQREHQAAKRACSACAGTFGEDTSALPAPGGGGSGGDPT
human PDE4D3, sequence (Q08499 186-808): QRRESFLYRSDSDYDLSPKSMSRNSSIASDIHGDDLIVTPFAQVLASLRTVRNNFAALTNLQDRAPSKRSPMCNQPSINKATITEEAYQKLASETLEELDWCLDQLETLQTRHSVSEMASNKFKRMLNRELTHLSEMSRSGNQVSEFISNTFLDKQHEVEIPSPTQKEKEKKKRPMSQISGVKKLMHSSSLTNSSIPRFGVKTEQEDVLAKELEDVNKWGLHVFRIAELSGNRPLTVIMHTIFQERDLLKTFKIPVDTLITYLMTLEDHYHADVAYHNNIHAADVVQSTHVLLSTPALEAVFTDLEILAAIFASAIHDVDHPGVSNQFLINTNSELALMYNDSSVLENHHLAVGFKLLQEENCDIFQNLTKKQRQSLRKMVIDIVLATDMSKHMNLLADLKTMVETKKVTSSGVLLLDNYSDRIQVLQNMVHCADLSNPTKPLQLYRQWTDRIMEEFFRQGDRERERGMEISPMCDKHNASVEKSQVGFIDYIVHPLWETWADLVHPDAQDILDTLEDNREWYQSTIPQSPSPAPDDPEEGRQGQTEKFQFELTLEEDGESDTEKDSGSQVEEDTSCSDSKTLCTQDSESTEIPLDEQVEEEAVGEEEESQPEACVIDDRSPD
Human PDE4C1, sequence (Q08493 2-712): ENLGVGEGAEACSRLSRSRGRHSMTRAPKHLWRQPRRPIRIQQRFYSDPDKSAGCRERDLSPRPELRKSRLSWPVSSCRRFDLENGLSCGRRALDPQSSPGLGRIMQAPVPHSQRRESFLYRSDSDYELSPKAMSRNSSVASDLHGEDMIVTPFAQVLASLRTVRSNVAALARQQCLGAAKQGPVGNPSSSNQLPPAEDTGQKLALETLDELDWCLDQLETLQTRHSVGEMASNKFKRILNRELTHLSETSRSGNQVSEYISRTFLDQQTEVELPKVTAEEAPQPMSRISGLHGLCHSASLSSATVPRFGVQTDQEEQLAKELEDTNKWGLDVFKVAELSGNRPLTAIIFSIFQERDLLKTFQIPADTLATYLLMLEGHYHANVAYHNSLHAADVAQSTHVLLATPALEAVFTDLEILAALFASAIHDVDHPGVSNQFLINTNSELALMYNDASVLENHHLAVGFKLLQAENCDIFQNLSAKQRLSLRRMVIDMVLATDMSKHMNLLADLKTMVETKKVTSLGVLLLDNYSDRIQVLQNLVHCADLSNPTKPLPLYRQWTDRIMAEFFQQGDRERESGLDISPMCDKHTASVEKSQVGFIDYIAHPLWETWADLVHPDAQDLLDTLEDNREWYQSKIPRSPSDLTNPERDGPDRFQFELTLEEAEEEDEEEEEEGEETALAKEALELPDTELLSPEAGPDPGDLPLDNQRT

SMILES | IC50 (Human PDE4C1; [1]) [nM] | IC50 (Human PDE4A3; [1]) [nM] | IC50 (Human PDE4B1; [1]) [nM] | IC50 (human PDE4D3; [1]) [nM] | IC50 (Human PDE4C1; [2]) [nM] | IC50 (Human PDE4A3; [2]) [nM] | IC50 (Human PDE4B1; [2]) [nM] | IC50 (human PDE4D3; [2]) [nM]
Cc1cc(N2CCn3c(c(-c4ccc(Cl)cc4)c4ncccc43)C2=O)no1 [Example 57, 10-(4-Chlorophenyl)-8-(5-methyl-1,2-oxazol-3-yl)-7,8-dihydropyrido[2′,3′:4,5]pyrrolo[1,2-a]pyrazin-9(6H)-one] | 10.8 | 3.49 | 3.81 | 38.3 | – | – | – | –
O=C1c2c(-c3ccc(Cl)cc3)c3ncccc3n2CCN1c1ncccn1 [Example 1, 10-(4-Chlorophenyl)-8-(pyrimidin-2-yl)-7,8-dihydropyrido[2′,3′:4,5]pyrrolo[1,2-a]pyrazin-9(6H)-one] | 182 | 18.8 | 16.1 | 1230 | – | – | – | –
O=C1c2c(-c3ccc(Cl)c(F)c3)c3nccnc3n2CCN1C1CC1 [Example 8, 10-(4-Chloro-3-fluorophenyl)-8-cyclopropyl-7,8-dihydropyrrolo[1,2-a:4,5-b′]dipyrazin-9(6H)-one] | 13.9 | 1.19 | < 1.27 | 88.5 | – | – | – | –
Cc1cc(C#N)c(F)cc1-c1c2c(n3c1C(=O)N(C1CC1)CC3)CCCO2 [Example 16, 4-(8-Cyclopropyl-9-oxo-3,4,6,7,8,9-hexahydro-2H-pyrano[2′,3′:4,5]pyrrolo[1,2-a]pyrazin-10-yl)-2-fluoro-5-methylbenzonitrile] | 15.2 | 1.57 | 1.78 | 45.5 | – | – | – | –
O=C1c2c(-c3ccc4c(c3)CCO4)c3ncccc3n2CCN1C1CC1 [Example 35, 8-Cyclopropyl-10-(2,3-dihydro-1-benzofuran-5-yl)-7,8-dihydropyrido[2′,3′:4,5]pyrrolo[1,2-a]pyrazin-9(6H)-one] | 5.52 | 2.08 | 4.15 | 141 | – | – | – | –
Cc1ccc(-c2c3ncccc3n3ccn(C4CC4)c(=O)c23)cc1 [Example 13, 8-Cyclopropyl-10-(4-methylphenyl)pyrido[2′,3′:4,5]pyrrolo[1,2-a]pyrazin-9(8H)-one] | 6.59 | 1.86 | 2.7 | 182 | – | – | – | –
O=C1c2c(-c3cnc4ccoc4c3)c3ncccc3n2CCN1C1CC1 [Example 64, 8-Cyclopropyl-10-(furo[3,2-b]pyridin-6-yl)-7,8-dihydropyrido[2′,3′:4,5]pyrrolo[1,2-a]pyrazin-9(6H)-one] | 37.5 | 3.56 | 11.5 | 458 | – | – | – | –
CCCc1ccnc(N2CCn3c(c(-c4ccc(Cl)cc4)c4ncccc43)C2=O)n1 [Example 97, 10-(4-Chlorophenyl)-8-(4-propylpyrimidin-2-yl)-7,8-dihydropyrido[2′,3′:4,5]pyrrolo[1,2-a]pyrazin-9(6H)-one] | – | – | – | – | 526 | 287 | 1040 | 1130
O=C1c2c(-c3ccc(Cl)c(F)c3)c3ncccc3n2CCN1C1CC1 [Example 32, 10-(4-Chloro-3-fluorophenyl)-8-cyclopropyl-7,8-dihydropyrido[2′,3′:4,5]pyrrolo[1,2-a]pyrazin-9(6H)-one] | 1.44 | < 0.45 | < 0.7 | 9.07 | – | – | – | –
CS(=O)(=O)c1cccc(-c2c3n(c4cccnc24)CCN(C2CC2)C3=O)c1 [Example 94, 8-Cyclopropyl-10-(3-(methylsulfonyl)phenyl)-7,8-dihydropyrido[2′,3′:4,5]pyrrolo[1,2-a]pyrazin-9(6H)-one] | – | – | – | – | 1050 | 720 | 467 | 858
N#Cc1ccc(-c2c3n(c4cccnc24)CC2CCCN2C3=O)cc1 (stereo not shown) [Example 61, 4-(11-Oxo-6a,7,8,9-tetrahydro-6H,11H-pyrido[2′,3′:4,5]pyrrolo[1,2-a]pyrrolo[1,2-d]pyrazin-12-yl)benzonitrile] | 60.3 | 35.1 | 39 | 1640 | – | – | – | –
N#Cc1cc(-c2c3n(c4cccnc24)CCN(C2CC2)C3=O)ccc1Cl [Example 34, 2-Chloro-5-(8-cyclopropyl-9-oxo-6,7,8,9-tetrahydropyrido[2′,3′:4,5]pyrrolo[1,2-a]pyrazin-10-yl)benzonitrile] | 2.88 | 0.98 | < 0.64 | 23.3 | – | – | – | –
COc1ccc(-c2c3n(c4cccnc24)CCN(C2CC2)C3=O)c(F)c1 [Example 54, 8-Cyclopropyl-10-(2-fluoro-4-methoxyphenyl)-7,8-dihydropyrido[2′,3′:4,5]pyrrolo[1,2-a]pyrazin-9(6H)-one] | 35.8 | 21.2 | 54.6 | 3770 | – | – | – | –
O=C1c2c(-c3ccc(Cl)c(F)c3)c3ncncc3n2CCN1C1CC1 [Example 7, 10-(4-Chloro-3-fluorophenyl)-8-cyclopropyl-7,8-dihydropyrazino[1′,2′: 1,5]pyrrolo[3,2-d]pyrimidin-9(6H)-one] | 71.4 | 14.3 | 2.53 | 159 | – | – | – | –
O=C1c2c(-c3ccc(Cl)cc3)c3ccccc3n2CCN1C1CC1 [Example 12, 10-(4-Chlorophenyl)-2-cyclopropyl-3,4-dihydropyrazino[1,2-a]indol-1(2H)-one] | 23.5 | 12 | 19.2 | 3090 | – | – | – | –
Cc1cc(-c2c3n(c4cccnc24)CCN(C2CC2)C3=O)ccc1F [Example 37, 8-Cyclopropyl-10-(4-fluoro-3-methylphenyl)-7,8-dihydropyrido[2′,3′:4,5]pyrrolo[1,2-a]pyrazin-9(6H)-one] | 3.3 | 2.52 | 3.76 | 98.7 | – | – | – | –

Other lines, results leading:

IC50 (Human PDE4C1; [1]) [nM] | IC50 (Human PDE4A3; [1]) [nM] | IC50 (Human PDE4B1; [1]) [nM] | IC50 (human PDE4D3; [1]) [nM] | IC50 (Human PDE4C1; [2]) [nM] | IC50 (Human PDE4A3; [2]) [nM] | IC50 (Human PDE4B1; [2]) [nM] | IC50 (human PDE4D3; [2]) [nM] | SMILES
500 | 222 | 111 | 3700 | – | – | – | – | O=C1c2c(-c3cncnc3)c3ncccc3n2CCN1C1CC1 [Example 55, 8-Cyclopropyl-10-(pyrimidin-5-yl)-7,8-dihydropyrido[2′,3′:4,5]pyrrolo[1,2-a]pyrazin-9(6H)-one]
9.03 | 2.28 | 3.04 | 434 | – | – | – | – | O=C1c2c(-c3ccc(Cl)cc3)c3ncsc3n2CCN1C1CC1 [Example 27, 9-(4-Chlorophenyl)-7-cyclopropyl-6,7-dihydro[1,3]thiazolo[4′,5′:4,5]pyrrolo[1,2-a]pyrazin-8(5H)-one]
9.39 | 2.71 | 5.79 | 395 | – | – | – | – | Cc1cc(F)ccc1-c1c2n(c3cccnc13)CCN(C1CC1)C2=O [Example 49, 8-Cyclopropyl-10-(4-fluoro-2-methylphenyl)-7,8-dihydropyrido[2′,3′:4,5]pyrrolo[1,2-a]pyrazin-9(6H)-one]
5.94 | 1 | 0.84 | 56.2 | – | – | – | – | O=C1c2c(-c3cc(F)c(Cl)cc3F)c3c(n2CCN1C1CC1)CCCO3 [Example 77, 10-(4-Chloro-2,5-difluorophenyl)-8-cyclopropyl-3,4,7,8-tetrahydro-2H-pyrano[2′,3′:4,5]pyrrolo[1,2-a]pyrazin-9(6H)-one]
– | – | – | – | 52.8 | 87.5 | 98.4 | 137 | COCCCCCCN1CCn2c(c(-c3ccc(Cl)cc3)c3ncccc32)C1=O [Example 96, 10-(4-Chlorophenyl)-8-(6-methoxyhexyl)-7,8-dihydropyrido[2′,3′:4,5]pyrrolo[1,2-a]pyrazin-9(6H)-one]
26 | 26 | 18.5 | 538 | – | – | – | – | O=C1c2c(-c3ccc(Cl)cc3)c3ncccc3n2CC2CCN12 (single isomer, unassigned) [Example 68]
87.7 | 12.6 | 9.73 | 290 | – | – | – | – | COc1c(F)cc(-c2c3n(c4nccnc24)CCN(C2CC2)C3=O)cc1F [Example 59, 8-Cyclopropyl-10-(3,5-difluoro-4-methoxyphenyl)-7,8-dihydropyrrolo[1,2-a:4,5-b′]dipyrazin-9(6H)-one]
4 | < 0.99 | < 0.42 | 75.3 | – | – | – | – | O=C1c2c(-c3ccc(Cl)cc3)c3ncccc3n2CCN1C1CC1 [Example 2, 10-(4-Chlorophenyl)-8-cyclopropyl-7,8-dihydropyrido[2′,3′:4,5]pyrrolo[1,2-a]pyrazin-9(6H)-one]
24.4 | 4.12 | 10.2 | 345 | – | – | – | – | O=C1c2c(-c3ccc(Cl)cc3)c3nccnc3n2CCN1C1CC1 [Example 18, 10-(4-Chlorophenyl)-8-cyclopropyl-7,8-dihydropyrrolo[1,2-a:4,5-b′]dipyrazin-9(6H)-one]
